Data on twelve compounds can be found in ChEMBL document CHEMBL1201862, “PubChem BioAssay data set” (2004).

What all share (assay): NCI-60 cell line screen, 48 h
The test system of experiment [1] is CAKI-1.
The test system of experiment [2] is SNB-19.
Experiment [3] has as its system IGROV-1.
The subject of experiment [4] is DMS-273.
Experiment [5] concerns Malme-3M.
Experiment [6] relates to KM12.
Experiment [7] deals with SF-295.
Experiment [8] concerns MOLT-4.
Experiment [9] has as its system U-251.
Experiment [10] concerns A549.
Experiment [11] deals with OVCAR-5.
For experiment [12], the system named is SK-OV-3.
The test system of experiment [13] is SK-MEL-28.
In experiment [14] the test system is K562.
For experiment [15], the system named is OVCAR-3.
In experiment [16] the test system is HCT-116.
For experiment [17], the system named is Hs-578T.
Experiment [18] deals with DU-145.
The subject of experiment [19] is MDA-MB-435.
Experiment [20] relates to A498.

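The compound was tested at five concentrations on cells cultured in 96-well plates, with a 48-hour exposure period. GI50 marks 50% less growth.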 Activity calls are given as the source filed them. Cut-off read from the data, not from the text of the source: active = GI50 up to about 1.1 µM and inactive = higher.

In the case of `N#Cc1ccc(Cc2ccccn2)cc1Cl`, the GI50 in [1], in experiment [2], in [3], in [4], in [5] and in experiment [6] was > 100 µM (inactive) throughout. Further, the GI50 in experiment [7], in [8], in experiment [9], in experiment [10], in experiment [11] and in [12] was > 100 µM (inactive) throughout. Besides, the GI50 in [13] and in [14] was > 100 µM (inactive) each time.

As for `Cc1cc([N+](=O)[O-])c(C)c2c1[nH]c1ccc(O)cc12`, the GI50 in experiment [1], in experiment [2], in [4], in experiment [5], in experiment [6] and in [7] was > 100 µM (inactive) each time. Moreover, the GI50 in experiment [8] was 59.2 µM (inactive); in experiment [10], > 100 µM (inactive); in experiment [15], 60.4 µM (inactive); in experiment [11], > 100 µM (inactive); in [16], > 100 µM (inactive); in experiment [13], > 100 µM (inactive). Moreover, the GI50 in experiment [14] was 45.8 µM (inactive).

Consider `COc1ccc2[nH]cc(CCNC(=O)[C@](O)(Cc3cn(C)c4ccccc34)[C@@]3(O)OCC(O)C3O)c2c1` (some centres not stated), for which the GI50 in experiment [1], in experiment [2], in experiment [3], in [4], in experiment [5] and in experiment [6] was > 100 µM (inactive) throughout. Also, the GI50 was > 100 µM (inactive) in experiment [7]; 37 µM (inactive) in experiment [8]; > 100 µM (inactive) in experiment [9]; > 100 µM (inactive) in experiment [10]; > 100 µM (inactive) in experiment [15]; > 100 µM (inactive) in experiment [11]. The GI50 in experiment [12] is > 100 µM (inactive); in experiment [16], 47.3 µM (inactive); in [13], > 100 µM (inactive); in experiment [14], 74 µM (inactive).

As to `COc1ccccc1C(=O)c1c(NCc2ccccc2)c(=O)c1=O`, the GI50 was 35.2 µM (inactive) in experiment [1]; > 100 µM (inactive) in [2]; 9.55 µM (inactive) in experiment [3]; > 100 µM (inactive) in experiment [17]; > 100 µM (inactive) in experiment [18]; > 100 µM (inactive) in experiment [19]. In addition, the GI50 was 23.4 µM (inactive) in experiment [5]; > 100 µM (inactive) in experiment [6]; > 100 µM (inactive) in experiment [7]; 23.4 µM (inactive) in [8]; 66.4 µM (inactive) in experiment [9]; > 100 µM (inactive) in experiment [20]. The GI50 in experiment [10] was 0.424 µM (active); in [15], > 100 µM (inactive); in [11] it was > 100 µM (inactive); in experiment [12] it was > 100 µM (inactive); in experiment [16] it was > 100 µM (inactive); in [13], 18.1 µM (inactive). The GI50 in experiment [14] was 27.5 µM (inactive).

Take `Cc1ccc(OCC2OC(n3cnc4c(Cl)nc(N)nc43)CC2Oc2ccc(C)cc2)cc1` (configuration not stated): the GI50 in experiment [1] was 1.76 µM (inactive); in [2], 38 µM (inactive); in [3], 19.4 µM (inactive); in [17], 39.4 µM (inactive); in experiment [18], 40.8 µM (inactive); in [19], > 57.1 µM (inactive). Besides, the GI50 in [5] is 24.5 µM (inactive); in experiment [6], > 51.8 µM (inactive); in experiment [7], 15.2 µM (inactive); in [8], 25.2 µM (inactive); in experiment [9], > 55.6 µM (inactive); in [20], > 75 µM (inactive). Further, the GI50 in [10] was 6.73 µM (inactive); in experiment [15], 21.6 µM (inactive); in [11], 34.3 µM (inactive); in experiment [12], > 69 µM (inactive); in experiment [16], 47.5 µM (inactive); in experiment [13], > 51.4 µM (inactive). The GI50 in [14] was 29.4 µM (inactive).

`NC(=O)/N=C1/CCC2C3CCCC2C13`: the GI50 in experiment [1], in experiment [2], in experiment [3], in [4], in experiment [6] and in experiment [7] was > 100 µM (inactive) in each case. Also, the GI50 in experiment [8], in experiment [9], in [10], in experiment [15], in [11] and in experiment [12] was > 100 µM (inactive) throughout. The GI50 in experiment [16], in experiment [13] and in experiment [14] was > 100 µM (inactive) in each case.

For `N#Cc1c(-c2ccccc2)c(-c2ccccc2)cc2c(=O)c3ccc(Cl)cc3[nH]c12`, the GI50 in experiment [2], in [3], in experiment [4], in experiment [5], in [7] and in experiment [8] was > 100 µM (inactive) each time. Besides, the GI50 in experiment [9], in [10], in experiment [15], in [11], in experiment [12] and in experiment [16] was > 100 µM (inactive) in each case. Besides, the GI50 in [13] is > 100 µM (inactive).

Regarding `CC[C@H]1CC(=O)c2c(cc3c(c2O)C(=O)c2ccccc2C3=O)[C@@]1(C#N)C(=O)OC(C)(C)C`, the GI50 in experiment [2] was 3.79 µM (inactive); in experiment [3], 2.4 µM (inactive); in experiment [4], 2.42 µM (inactive); in experiment [5], 4.92 µM (inactive); in [6], 2.62 µM (inactive); in experiment [7] it was 4.47 µM (inactive). Besides, the GI50 in [8] is 2.33 µM (inactive); in experiment [9], 3.48 µM (inactive); in experiment [10] it was 3.27 µM (inactive); in [15], 2.81 µM (inactive); in experiment [11], 10.3 µM (inactive); in experiment [12], 3.65 µM (inactive). For the same compound, the GI50 was 2.7 µM (inactive) in experiment [16] and 5.92 µM (inactive) in experiment [13].

As to `COc1ccc2c(c1)O[C@@H]1c3ccc(OC)cc3OC[C@H]21`, the GI50 in [1] was 29.6 µM (inactive); in experiment [2] it was 54.3 µM (inactive); in [3] it was 37 µM (inactive); in [4], 14.1 µM (inactive); in [5], 39.2 µM (inactive); in experiment [6], 28.4 µM (inactive). The GI50 in [7] is 26.9 µM (inactive); in experiment [8], 16.6 µM (inactive); in experiment [9], 24.2 µM (inactive); in experiment [10], 29.2 µM (inactive); in experiment [15] it was 34 µM (inactive); in experiment [11], 45.3 µM (inactive). The GI50 in [12] is 57 µM (inactive); in [16], 27.7 µM (inactive); in experiment [13], 40.5 µM (inactive); in experiment [14] it was 6.11 µM (inactive).

As to `CC(=O)OC1CC2CCN3C(=O)c4cc5c(cc4[C@H](C1OC(C)=O)C23)OCO5` (some centres not stated), the GI50 in experiment [2], in [3], in experiment [4], in [5], in experiment [6] and in experiment [7] was > 100 µM (inactive) each time. Also, the GI50 in experiment [8], in [9], in experiment [10], in experiment [15], in experiment [12] and in experiment [16] was > 100 µM (inactive) each time. Also, the GI50 in [13] and in experiment [14] was > 100 µM (inactive) in each case.

In the case of `O=C1CC[C@H](NC(=O)Cc2ccccc2)C(=O)N1` [ANTINEOPLASTON A10], the GI50 in experiment [1], in [2], in [3], in [4], in [5] and in [6] was > 1250 µM (inactive) each time. The GI50 in [7], in experiment [8], in [9], in [10], in experiment [11] and in [12] was > 1250 µM (inactive) in each case. Moreover, the GI50 in experiment [16], in [13] and in experiment [14] was > 1250 µM (inactive) throughout.

For `COc1ccc(-c2coc3cc(O)ccc3c2=O)cc1` [FORMONONETIN], the GI50 in experiment [1], in [2], in [3], in experiment [17], in [18] and in [19] was > 100 µM (inactive) in each case. For the same compound, the GI50 in [5], in experiment [6], in experiment [7], in experiment [8], in experiment [9] and in [20] was > 100 µM (inactive) each time. Further, the GI50 in experiment [10], in [15], in experiment [11], in [12], in experiment [16] and in experiment [13] was > 100 µM (inactive) each time. Besides, the GI50 in [14] is > 100 µM (inactive).
